Laboratory results from patent US6124269A, “2-Halo-6-O-substituted ketolide derivatives” (priority 1998, dated 2000).
In brackets after ≈: the same amount, converted by molar mass.

How the values were obtained:
Type in all cases: cell-based
[1] = tested on: Nocardia asteroides ATCC 9970; test: In vitro agar dilution MIC, organism code VV; details: Table 1B, in µg/mL (unit assumed)
Protocol: (§1) Representative compounds of the present invention were assayed in vitro for antibacterial activity as follows: Twelve petri dishes containing successive aqueous dilutions of the test compound mixed with 10 mL of sterilized Brain Heart Infusion (BHI) agar (Difco 0418-01-5) were prepared. Each plate was inoculated with 1:100 (or 1:10 for slow-growing strains, such as Micrococcus and Streptococcus) dilutions of up to 32 different microorganisms, using a Steers replicator block. The inoculated plates were incubated at 35-37° C. for 20 to 24 hours. In addition, a control plate, using BHI agar containing no test compound, was prepared and incubated at the beginning and end of each test.
An additional plate containing a compound having known susceptibility patterns for the organisms being tested and belonging to the same antibiotic class as the test compound was also prepared and incubated as a further control, as well as to provide test-to-test comparability. Erythromycin A was used for this purpose.
(§2) After incubation, each plate was visually inspected. The minimum inhibitory concentration (MIC) was defined as the lowest concentration of drug yielding no growth, a slight haze, or sparsely isolated colonies on the inoculum spot as compared to the growth control.

[2] = tested on: Mycobacterium smegmatis ATCC 114; test: In vitro agar dilution MIC, organism code UU; details: Table 1B, in µg/mL (unit assumed)
Protocol: as §1
(§3) An additional plate containing a compound having known susceptibility patterns for the organisms being tested and belonging to the same antibiotic class as the test compound was also prepared and incubated as a further control, as well as to provide test-to-test comparability.
as §2

[3] = tested on: Staphylococcus aureus CMX 553; test: In vitro agar dilution MIC, organism code FF; details: Table 1B, unit assumed
Protocol: as §1, §3, §2

[4] = tested on: Streptococcus pyogenes PIU 2548; test: In vitro agar dilution MIC, organism code NN; details: unit assumed
Protocol: as §1, §3, §2

[5] = tested on: Staphylococcus aureus 1775; test: In vitro agar dilution MIC, organism code GG; details: Table 1B, unit assumed
Protocol: as §1, §3, §2

Escherichia coli JUHL = test: In vitro agar dilution MIC, organism code QQ; details: Table 1B, in µg/mL (unit assumed)
Protocol: as §1, §3, §2

[6] = tested on: Staphylococcus aureus A5177; test: In vitro agar dilution MIC, organism code BB; details: in µg/mL (unit assumed)
Protocol: as §1, §3, §2

[7] = tested on: Staphylococcus aureus ATCC 6538P; test: In vitro agar dilution MIC, organism code AA; details: unit assumed
Protocol: as §1, §3, §2

[8] = tested on: Streptococcus agalactiae CMX 508; test: In vitro agar dilution MIC, organism code KK; details: Table 1B, unit assumed
Protocol: as §1, §3, §2

[9] = tested on: Streptococcus pneumoniae 5979; test: In vitro agar dilution MIC, organism code ZZ; details: unit assumed
Protocol: as §1, §3, §2

Escherichia coli DC-2 = test: In vitro agar dilution MIC, organism code SS; details: Table 1B, unit assumed
Protocol: as §1, §3, §2

[10] = tested on: Enterococcus faecium ATCC 8043; test: In vitro agar dilution MIC, organism code II; details: Table 1B, unit assumed
Protocol: as §1, §3, §2

[11] = tested on: Streptococcus pyogenes EES61; test: In vitro agar dilution MIC, organism code LL; details: unit assumed
Protocol: as §1, §3, §2

Candida albicans CCH 442 = test: In vitro agar dilution MIC, organism code TT; details: Table 1B, unit assumed
Protocol: as §1, §3, §2

Escherichia coli SS = test: In vitro agar dilution MIC, organism code RR; details: Table 1B, in µg/mL (unit assumed)
Protocol: as §1, §3, §2

[12] = tested on: Streptococcus pneumoniae ATCC 6303; test: In vitro agar dilution MIC, organism code XX; details: unit assumed
Protocol: as §1, §3, §2

[13] = tested on: Haemophilis influenzae DILL AMP R; test: In vitro agar dilution MIC, organism code WW; details: unit assumed
Protocol: as §1, §3, §2

[14] = tested on: Staphylococcus epidermidis 3519; test: In vitro agar dilution MIC, organism code HH; details: Table 1B, in µg/mL (unit assumed)
Protocol: as §1, §3, §2

[15] = tested on: Streptococcus pneumoniae GYR 1171; test: In vitro agar dilution MIC, organism code YY; details: Table 1B, unit assumed
Protocol: as §1, §3, §2

[16] = tested on: Streptococcus pyogenes 930; test: In vitro agar dilution MIC, organism code MM; details: unit assumed
Protocol: as §1, §3, §2

[17] = tested on: Micrococcus luteus ATCC 9341; test: In vitro agar dilution MIC, organism code OO; details: Table 1B, unit assumed
Protocol: as §1, §3, §2

[18] = tested on: Streptococcus pneumoniae 5649; test: In vitro agar dilution MIC, organism code ZZA; details: unit assumed
Protocol: as §1, §3, §2

[19] = tested on: Micrococcus luteus ATCC 4698; test: In vitro agar dilution MIC, organism code PP; details: Table 1B, in µg/mL (unit assumed)
Protocol: as §1, §3, §2

[20] = tested on: Staphylococcus aureus CMX 642A; test: In vitro agar dilution MIC, organism code DD; details: Table 1B, unit assumed
Protocol: as §1, §3, §2

[21] = tested on: Staphylococcus aureus A-5278; test: In vitro agar dilution MIC, organism code CC; details: unit assumed
Protocol: as §1, §3, §2

[22] = tested on: Streptococcus bovis A-5169; test: In vitro agar dilution MIC, organism code JJ; details: Table 1B, unit assumed
Protocol: as §1, §3, §2

[23] = tested on: Staphylococcus aureus NCTC10649M; test: In vitro agar dilution MIC, organism code EE; details: Table 1B, unit assumed
Protocol: as §1, §3, §2

Structure (SMILES) | MIC [1] | MIC [2] | MIC [3] [µg/mL] | MIC ([4]; Table 1B) [µg/mL] | MIC [5] [µg/mL] | MIC (Escherichia coli JUHL) | MIC ([6]; Table 1B) | MIC ([7]; Table 1B) [µg/mL] | MIC [8] [µg/mL] | MIC ([9]; Table 1B) [µg/mL] | MIC (Escherichia coli DC-2) [µg/mL] | MIC [10] [µg/mL] | MIC ([11]; Table 1B) [µg/mL] | MIC (Candida albicans CCH 442) [µg/mL] | MIC (Escherichia coli SS) | MIC ([12]; Table 1B) [µg/mL] | MIC ([13]; Table 1B) [µg/mL] | MIC [14] | MIC [15] [µg/mL] | MIC [17] [µg/mL] | other results
CC[C@H]1OC(=O)[C@@](C)(F)C(=O)[C@H](C)[C@@H](O[C@@H]2O[C@H](C)C[C@H](N(C)C)[C@H]2O)[C@](C)(OC/C=C/c2cnc3ccc(C=NO)cc3c2)C[C@@H](C)C(=O)[C@H](C)[C@H]2NC(=O)O[C@@]21C [Example 18] | 0.01 | 0.78 | 0.05 (≈ 0.0605 µM) | 0.02 (≈ 0.0242 µM) | 50 (≈ 60.5 µM) | 25 | 0.05 | 0.02 (≈ 0.0242 µM) | 0.01 (≈ 0.0121 µM) | 0.25 (≈ 0.302 µM) | 50 (≈ 60.5 µM) | 0.02 (≈ 0.0242 µM) | ≤ 0.005 | > 100 | 0.2 | 0.015 (≈ 0.0181 µM) | 2 (≈ 2.42 µM) | 0.05 | 0.015 (≈ 0.0181 µM) | 0.01 (≈ 0.0121 µM) | MIC ([16]; Table 1B): 0.2 µg/mL (≈ 0.242 µM); MIC ([18]; Table 1B): 0.25 µg/mL (≈ 0.302 µM); MIC [19]: 0.02; MIC [20]: 0.05 µg/mL (≈ 0.0605 µM); MIC ([21]; Table 1B): 50 µg/mL (≈ 60.5 µM); MIC [22]: ≤ 0.005 µg/mL; MIC [23]: 0.05 µg/mL (≈ 0.0605 µM)
CC[C@H]1OC(=O)C(C)(F)C(=O)[C@H](C)[C@@H](O[C@@H]2O[C@H](C)C[C@H](N(C)C)[C@H]2O)[C@](C)(OCC#CC(=O)c2ccccc2)C[C@@H](C)C(=O)[C@H](C)[C@H]2NC(=O)O[C@@]21C (stereo partly drawn) [Example 23] | 0.78 | 3.1 | 0.78 (≈ 1.03 µM) | 1.56 (≈ 2.06 µM) | > 100 | > 100 | 0.78 | 1.56 (≈ 2.06 µM) | 0.39 (≈ 0.514 µM) | > 128 | > 100 | 0.78 (≈ 1.03 µM) | 0.39 (≈ 0.514 µM) | > 100 | 3.1 | 0.03 (≈ 0.0395 µM) | 8 (≈ 10.5 µM) | 1.56 | 0.03 (≈ 0.0395 µM) | 0.2 (≈ 0.264 µM) | MIC ([16]; Table 1B): > 100 µg/mL; MIC ([18]; Table 1B): 2 µg/mL (≈ 2.64 µM); MIC [19]: 1.56; MIC [20]: 1.56 µg/mL (≈ 2.06 µM); MIC ([21]; Table 1B): > 100 µg/mL; MIC [22]: 0.1 µg/mL (≈ 0.132 µM); MIC [23]: 1.56 µg/mL (≈ 2.06 µM)
CC[C@H]1OC(=O)[C@@](C)(F)C(=O)[C@H](C)[C@@H](O[C@@H]2O[C@H](C)C[C@H](N(C)C)[C@H]2O)[C@](C)(OC/C=C/c2cnc3ccc(CS(N)(=O)=O)cc3c2)C[C@@H](C)C(=O)[C@H](C)[C@H]2NC(=O)O[C@@]21C [Example 14] | 0.1 | 3.1 | 0.1 (≈ 0.114 µM) | 0.2 (≈ 0.228 µM) | > 100 | 50 | 0.1 | 0.05 (≈ 0.057 µM) | 0.01 (≈ 0.0114 µM) | 2 (≈ 2.28 µM) | 100 (≈ 114 µM) | 0.1 (≈ 0.114 µM) | 0.01 (≈ 0.0114 µM) | > 100 | 0.1 | ≤ 0.004 | 2 (≈ 2.28 µM) | 0.1 | ≤ 0.004 | 0.01 (≈ 0.0114 µM) | MIC ([18]; Table 1B): 0.25 µg/mL (≈ 0.285 µM); MIC [19]: 0.2; MIC [20]: 0.1 µg/mL (≈ 0.114 µM); MIC ([21]; Table 1B): > 100 µg/mL; MIC [22]: ≤ 0.005 µg/mL; MIC [23]: 0.1 µg/mL (≈ 0.114 µM)
CC[C@H]1OC(=O)[C@H](C)C(=O)[C@H](C)[C@@H](O[C@@H]2O[C@H](C)C[C@H](N(C)C)[C@H]2O)[C@](C)(OC)C[C@@H](C)C2=NCCN3C(=O)O[C@@]1(C)[C@H]3[C@H]2C [Standard (X is H), reference compound] | – | – | – | – | – | – | – | – | – | – | – | – | – | – | – | – | – | – | – | – | MIC ([4]; Table 1C): 0.39 µg/mL (≈ 0.611 µM); MIC ([6]; Table 1C): 0.2; MIC ([7]; Table 1C): 0.2 µg/mL (≈ 0.314 µM); MIC ([9]; Table 1C): > 128 µg/mL; MIC ([11]; Table 1C): 0.02 µg/mL (≈ 0.0314 µM); MIC ([12]; Table 1C): 0.06 µg/mL (≈ 0.0941 µM); MIC ([13]; Table 1C): 4 µg/mL (≈ 6.27 µM); MIC ([16]; Table 1C): > 100 µg/mL; MIC ([18]; Table 1C): 0.5 µg/mL (≈ 0.784 µM); MIC ([21]; Table 1C): > 100 µg/mL
